Reference: patent EP0973746B1, “SUBSTITUTED 3-CYANO QUINOLINES” (Wyeth Holdings Corporation, priority 1997, dated 1998)
Converted amounts (≈) assume the structure as drawn. “And” between values parts separate entries of the source, which are not always exact repeats. Equal values may be shown once. Read-outs that look alike come from different tables or passages of the source.

What was measured:
SW620 = experiment: Inhibition of cancer cell growth as measured by cell number, SW620; type: cell-based, human; settings: for IC50: Homo sapiens, SW-620, 48 h;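 as to all read-outs here: SW620 was included as a cell line with little or no EGFR or HER2/neu expression, in contrast to receptor-overexpressing lines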
Text: (§1) The cell lines were chosen since they overexpressed epidermal growth factor receptor (EGFR) (i.e. A431) or HER2/neu (SKBR3), or had little to no expression of the these receptors (SW620, LOX, MCF7).

MCF7 = experiment: Inhibition of cancer cell growth as measured by cell number, MCF7; type: cell-based, human; settings: Table 8; for IC50: Homo sapiens, MCF7, 48 h;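 as to all read-outs here: MCF7 was included as a line with little or no EGFR or HER2/neu expression, in contrast to the receptor-overexpressing lines of the panel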
Text: as §1

SKBR3 = experiment: Inhibition of cancer cell growth as measured by cell number, SKBR3; type: cell-based, human; settings: for IC50: Homo sapiens, Table 8;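 as to all read-outs here: SK-BR-3 cells were selected as a line overexpressing HER2/neu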
Text: as §1

LOX = experiment: Inhibition of cancer cell growth as measured by cell number, LOX; type: cell-based, human; settings: Table 8; for IC50: Homo sapiens, LOX, 48 h;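 as to all read-outs here: LOX cells served as a line with low or absent EGFR and HER2/neu expression, in contrast to receptor-overexpressing lines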
Text: as §1

A431 = experiment: Inhibition of cancer cell growth as measured by cell number, A431; type: cell-based, human; settings: for IC50: Homo sapiens, A-431, 48 h;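 as to all read-outs here: human A431 line, picked because it overexpresses epidermal growth factor receptor (EGFR)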
Text: as §1

[1] = molecular target: recombinant human MEK 1 (MAPKK) and recombinant human ERK2 (MAPK); experiment: Mitogen Activated Protein Kinase (MAPK) assay, two component coupled MEK 1 / ERK2; type: biochemical; settings: separate entries for the same compound = evaluated more than one time;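 also: MEK 1-activated ERK2 phosphorylates MBP or Myc peptide with 33P-ATP, filter capture and scintillation counting, inhibitor preincubated with ERK2 30 min at 0 °C, inhibition relative to uninhibited control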
[2] = molecular target: T1, His-tagged cytoplasmic domain of EGFR (Homo sapiens, UniProt P00533); experiment: Inhibition of Epidermal Growth Factor Receptor Kinase (EGF-R) using recombinant enzyme; type: biochemical; settings: recombinant enzyme; RR-SRC peptide; average of the number of tests; read-out: IC50;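 also: radiometric kinase assay measuring radiolabeled phosphate transfer from ATP onto the peptide tyrosine by scintillation counting, control is reaction without compound, background subtracted, IC50 from dose-response curve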
T1 construct: containing the EGFR cDNA encoding amino acids 645 - 1186 preceded by Met-Ala-(His)6; made in house; host or cells: Sf9 cells, recombinant baculovirus vHcEGFR52

[3] = read-out: IC50 SW620, cell number, Sulforhodamine B, 48 hours exposure, Table 8
[4] = read-out: IC50 MCF7, cell number, Sulforhodamine B, 48 hours exposure
[5] = SK-BR-3, 48 h, read-out: IC50 SKBR3, cell number, Sulforhodamine B, 48 hours exposure
[6] = read-out: IC50 LOX, cell number, Sulforhodamine B, 48 hours exposure
[7] = read-out: IC50 A431, cell number, Sulforhodamine B, 48 hours exposure, Table 8
[8] = cell number, Sulforhodamine B, 48 hours exposure, Table 8, read-out: IC50 SW620
[9] = cell number, Sulforhodamine B, 48 hours exposure, Table 8, read-out: IC50 A431
[10] = SK-BR-3, cell number, Sulforhodamine B, 48 hours exposure, read-out: IC50 SKBR3
[11] = cell number, Sulforhodamine B, 48 hours exposure
[12] = cell number, Sulforhodamine B, 48 hours exposure, Table 8

T1 sequence (P00533 669-1210): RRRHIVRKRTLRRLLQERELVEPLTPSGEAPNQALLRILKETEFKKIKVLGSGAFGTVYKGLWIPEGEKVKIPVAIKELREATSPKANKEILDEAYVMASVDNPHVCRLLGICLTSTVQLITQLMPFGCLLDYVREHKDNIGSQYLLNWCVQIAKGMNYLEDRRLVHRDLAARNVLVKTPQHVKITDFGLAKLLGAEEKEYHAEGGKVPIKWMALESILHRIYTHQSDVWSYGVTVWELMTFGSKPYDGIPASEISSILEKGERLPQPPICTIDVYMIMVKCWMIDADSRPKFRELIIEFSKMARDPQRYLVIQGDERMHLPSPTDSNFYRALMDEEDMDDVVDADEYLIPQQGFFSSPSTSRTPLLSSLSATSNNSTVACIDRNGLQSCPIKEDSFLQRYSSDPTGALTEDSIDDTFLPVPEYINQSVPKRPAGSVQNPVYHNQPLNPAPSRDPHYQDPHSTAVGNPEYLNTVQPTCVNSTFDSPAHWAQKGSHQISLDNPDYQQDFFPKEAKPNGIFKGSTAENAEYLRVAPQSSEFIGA

Row | SMILES | IC50 (SW620; [3]) [µg/mL] | IC50 (MCF7; [4]) [µg/mL] | IC50 (SKBR3; [5]) [µg/mL] | IC50 (LOX; [6]) [µg/mL] | IC50 (A431; [7]) [µg/mL] | IC50 [1] | IC50 [2] [nM] | further results
1 | COc1cc2ncc(C#N)c(Nc3cccc(F)c3)c2cc1OC [Example 35, 4-[(3-Fluorophenyl)amino]-6,7-dimethoxy-3-quinolinecarbonitrile] | 6.4 (≈ 19.8 µM) | 40.9 (≈ 126 µM) | 0.93 (≈ 2.88 µM) |  |  |  |  | IC50 (SW620; read-out: IC50 SW620, cell number, Sulforhodamine B, 48 hours exposure, Table 4): 9.57 µg/mL (≈ 29.6 µM)
2 | COCC=CC(=O)Nc1ccc2ncc(C#N)c(Nc3cccc(Br)c3)c2c1 [Example 65, 4-Methoxy-but-2-enoic acid [4-(3-bromo-phenylamino)-3-cyano-quinolin-6-yl]-amide] | > 100 | 84 (≈ 192 µM) | 60 (≈ 137 µM) | 84 (≈ 192 µM) | 48 (≈ 110 µM) | 40000 nM |  | 
3 | CN(C)Cc1cc([N+](=O)[O-])cc2c(Nc3cccc(Br)c3)c(C#N)cnc12 [Example 108, 4-[(3-Bromophenyl)amino]-8-dimethylaminomethyl-6-nitro-3-quinolinecarbonitrile] | 14.6 (≈ 34.1 µM) | 7.97 (≈ 18.7 µM) | 6.34 (≈ 14.9 µM) | 6.85 (≈ 16.1 µM) | 6.6 (≈ 15.5 µM) | > 100000 nM |  | 
4 | CN(C)Cc1cc(N)cc2c(Nc3cccc(Br)c3)c(C#N)cnc12 [Example 109, 6-Amino-4-[(3-bromophenyl)amino]-8-dimethylaminomethyl-3-quinolinecarbonitrile] | 40.8 (≈ 103 µM) | 37.9 (≈ 95.7 µM) | 30.7 (≈ 77.4 µM) | 35.1 (≈ 88.5 µM) | 38.9 (≈ 98 µM) |  |  | 
5 | CC#CC(=O)Nc1cc(CN(C)C)c2ncc(C#N)c(Nc3cccc(Br)c3)c2c1 [Example 110, N-{4-[(3-Bromophenyl)amino]-3-cyano-8-dimethylaminomethyl-6-quinolinyl} -2-butynamide] | 0.7 (≈ 1.51 µM) |  | 1.3 (≈ 2.81 µM) | 0.8 (≈ 1.73 µM) | 0.9 (≈ 1.95 µM) | 40000 nM |  | 
6 | N#Cc1cnc2ccc(N)cc2c1Nc1ccc(F)c(F)c1 [Example 155, 6-Amino-4-[(3.4-difluorophenyl)amino]-3-quinolinecarbonitrile] | 7.55 (≈ 25.5 µM) | 7.49 (≈ 25.3 µM) | 3.28 (≈ 11.1 µM) | 6.08 (≈ 20.5 µM) | 4.3 (≈ 14.5 µM) |  |  | 
7 | N#Cc1cnc2ccc(N)cc2c1Nc1ccc(Sc2ccccc2)c(Cl)c1 [Example 158, 6-Amino-4-[(3-chloro-4-thiophenoxyphenyl)amino]-3-quinolinecarbonitrile] | 4.08 (≈ 10.1 µM) | 5.44 (≈ 13.5 µM) | 0.8 (≈ 1.99 µM) | 2.44 (≈ 6.06 µM) | 2.97 (≈ 7.37 µM) |  |  | 
8 | C=CC(=O)Nc1ccc2ncc(C#N)c(Nc3cccc(C#N)c3)c2c1 [Example 160, N-[3-Cyano-4-[(3-cyanophenyl)amino]-6-quinolinyl}-2-propenamide] | 2.3 (≈ 6.78 µM) |  | 0.5 (≈ 1.47 µM) |  | 0.2 (≈ 0.589 µM) | 30000 nM | 2 | 
9 | N#Cc1cccc(Nc2c(C#N)cnc3ccc(NC(=O)C#CCN4CCCCC4)cc23)c1 [Example 161, N-{3-Cyano-4-[(3-cyanophenyl)amino]-6-quinolinyl}-4-piperidino-2-butynamide] | 0.2 (≈ 0.46 µM) |  | 0.04 (≈ 0.0921 µM) |  | 0.1 (≈ 0.23 µM) | 55000 nM | 0.35 | 
10 | C#Cc1cccc(Nc2c(C#N)cnc3ccc(NC(=O)C#CCN4CCCCC4)cc23)c1 [Example 166, N-{3-cyano-4-[(3-ethynylphenyl)amino]-6-quinolinyl)-4-piperidino-2-butynamide] | 0.04 (≈ 0.0923 µM) |  | 0.02 (≈ 0.0461 µM) |  | 0.02 (≈ 0.0461 µM) | > 100000 nM | 20 | 
11 | CCCN(CC#CC(=O)Nc1ccc2ncc(C#N)c(Nc3cccc(Br)c3)c2c1)CCC [Example 170] |  |  |  |  |  | > 100000 nM | 60 | IC50 SW620 (SW620): 0.1 µg/mL (≈ 0.198 µM); IC50 A431 (A431): 0.03 µg/mL (≈ 0.0595 µM); IC50 SKBR3 (SKBR3): 0.03 µg/mL (≈ 0.0595 µM)
12 | CN(C)CC=CC(=O)Nc1ccc2ncc(C#N)c(Nc3ccc(F)c(Br)c3)c2c1 [Example 172, N-{4-[(3-Bromo-4-fluorophenyl)amino]-3-cyano-6-quinolinyl} -4-dimethylamino-2-butenamide] |  |  |  |  |  | 90000 nM | 5 | IC50 (SW620; [8]): 1.59 µg/mL (≈ 3.4 µM); IC50 (A431; [9]): 0.255 µg/mL (≈ 0.544 µM); IC50 (SKBR3; [10]): 0.067 µg/mL (≈ 0.143 µM)
13 | CCN1CCN(CC#CC(=O)Nc2ccc3ncc(C#N)c(Nc4cccc(Br)c4)c3c2)CC1 [Example 188, N-[4-[(3-Bromophenyl)amino]-3-cyano-6-quinolinyl]-4-(N-ethylpiperazino)-2-butynamide] |  | 1.43 (≈ 2.76 µM) |  |  | 0.54 (≈ 1.04 µM) |  | 1 | IC50 MCF7 (MCF7; [11]): 0.8 µg/mL (≈ 1.55 µM); IC50 A431 (A431; [12]): 0.4 µg/mL and 0.579 µg/mL
14 | CCN(CC)CC#CC(=O)Nc1ccc2ncc(C#N)c(Nc3ccc(F)c(Cl)c3)c2c1 [Example 189, N-[4-[(3-Chloro-4-fluorophenyl)amino]-3-cyano-6-quinolinyl]-4-diethylamino-2-butynamide] | 0.1 (≈ 0.222 µM) |  | 0.03 (≈ 0.0667 µM) |  | 0.04 (≈ 0.0889 µM) | 50000 nM | 2 | 
15 | COCC#CC(=O)Nc1ccc2ncc(C#N)c(Nc3ccc(F)c(Cl)c3)c2c1 [Example 194, N-[4-[-(3-Chloro-4-fluorophenyl)amino]-3-cyano-6-quinolinyl]-4-methoxy-2-butynamide] | 0.2 (≈ 0.489 µM) |  | 0.2 (≈ 0.489 µM) |  | 0.1 (≈ 0.245 µM) | > 100000 nM | 1.7 | 
16 | CCN(CC)CC=CC(=O)Nc1cc2c(Nc3ccc(F)c(Br)c3)c(C#N)cnc2cc1OC [Example 209, 4-Diethylamino-but-2-enoic acid [4-(3-bromo-4-fluorophenylamino)-3-cyano-7-methoxy-quinolin-6-yl]-amide] | 0.38 (≈ 0.722 µM) |  | 0.048 (≈ 0.0912 µM) |  | 0.113 (≈ 0.215 µM) | 9000 nM | 5 | 
17 | CCOc1cc2ncc(C#N)c(Nc3ccc(Sc4ccccc4)c(Cl)c3)c2cc1OCC [Example 254, 4-[3-Chloro-4-(phenylthio)phenylamino]-6,7-diethoxy-3-quinolinecarbonitrile] | 0.03 (≈ 0.063 µM) | 0.07 (≈ 0.147 µM) | 0.01 (≈ 0.021 µM) | 0.07 (≈ 0.147 µM) | 0.07 (≈ 0.147 µM) |  |  | 
18 | CCOc1cc2ncc(C#N)c(N(C)c3ccccc3)c2cc1OCC [Example 258, 4-(N-Methylphenylamino)-6,7-diethoxy-3-quinolinecarbonitrile] |  | 7.87 (≈ 22.7 µM) |  | 6.12 (≈ 17.6 µM) | 4.67 (≈ 13.4 µM) |  |  | IC50 MCF7 (MCF7; [11]): 9.69 µg/mL (≈ 27.9 µM); IC50 LOX (LOX; [11]): 10.72 µg/mL (≈ 30.9 µM); IC50 A431 (A431; [12]): 5.42 µg/mL (≈ 15.6 µM)
19 | COCCOc1cc2ncc(C#N)c(Nc3cccc(Br)c3)c2cc1OCCOC [Example 311, 4-[(3-Bromophenyl)amino]-6,7-bis(2-methoxyethoxy)-3-quinolinecarbonitrile] | 1 (≈ 2.12 µM) |  | 0.7 (≈ 1.48 µM) | 2.8 (≈ 5.93 µM) |  | 2000 nM and 2500 nM |  | 
20 | COc1cc2c(Nc3ccc(O)cc3C)c(C#N)cnc2cc1OCCCN1CCOCC1 [Example 312, 4-(4-Hydroxy-2-methyl-phenylamino)-6-methoxy-7-(3-morpholin-4-yl-propoxy)-quinoline-3-carbonitrile] |  |  |  |  |  | > 100000 nM | 50 | IC50 (SW620; [8]): 3.53 µg/mL (≈ 7.88 µM); IC50 (A431; [9]): 0.491 µg/mL (≈ 1.09 µM); IC50 (SKBR3; [10]): 2.25 µg/mL (≈ 5.03 µM)
21 | CC(C)(C)[Si](C)(C)OCC#CC(=O)Nc1ccc2ncc(C#N)c(Nc3cccc(Br)c3)c2c1 [Example 331, N-[4-[(3-Bromophenyl)amino]-3-cyano-6-quinolinyl]-4-t-butyldimethylsiloxy-2-butynamide] |  |  |  |  |  |  |  | IC50 (SW620; [8]): 0.04 µg/mL (≈ 0.0747 µM); IC50 (MCF7; cell number, Sulforhodamine B, 48 hours exposure, read-out: IC50 MCF7): 0.44 µg/mL (≈ 0.822 µM); IC50 (LOX; cell number, Sulforhodamine B, 48 hours exposure, read-out: IC50 LOX): 0.04 µg/mL (≈ 0.0747 µM); IC50 (A431; [9]): 0.03 µg/mL (≈ 0.056 µM); IC50 (SKBR3; [10]): 0.16 µg/mL (≈ 0.299 µM)
